In ChEMBL document CHEMBL4616659, “Talarolactone A, an Isocoumarin Derivative Fused with Dihydrothiophene with Selective Antimigratory Activity from the Endolichenic Fungus Talaromyces sp” (J Nat Prod, 2020):
Active and inactive are the calls of the source. The calls are words filed in the database; no cut-off is given here.

Columns and labels:
MCF7 = assay: Cytotoxicity against human MCF7 cells at 6.25 to 50 ug/ml incubated for 24 hrs by MTT assay; assay type: functional, cell-based
MDA-MB-231 = assay: Cytotoxicity against human MDA-MB-231 cells at 6.25 to 50 ug/ml incubated for 24 hrs by MTT assay; assay type: functional, cell-based
A549 = assay: Cytotoxicity against human A549 cells at 6.25 to 50 ug/ml incubated for 24 hrs by MTT assay; assay type: functional, cell-based
HepG2 [1] = assay: Cytotoxicity against human HepG2 cells at 6.25 to 50 ug/ml incubated for 24 hrs by MTT assay; assay type: functional, cell-based
[2] = Cytotoxicity against human THLE cells at 6.25 to 50 ug/ml incubated for 24 hrs by MTT assay; assay type: cell-based
[3] = Cytotoxicity against human HBE cells at 6.25 to 50 ug/ml incubated for 24 hrs by MTT assay; assay type: cell-based
HepG2 [4] = assay: Antimigratory activity against human HepG2 cells at 25 ug/ml measured up to 60 hrs by microscopic based wound healing assay; assay type: functional, cell-based
[5] = Toxicity in zebrafish AB embryo up to 100 ug/ml after 24 to 88 hrs by inverted microscope; parameters: species or system Danio rerio; conditions: in vivo
Escherichia coli = assay: Antibacterial activity against Escherichia coli ATCC 25922 up to 100 ug/ml incubated for 20 hrs by microbroth dilution method; assay type: functional, organism-based
Klebsiella pneumoniae [6] = assay: Antibacterial activity against Klebsiella pneumoniae ATCC 43816 up to 100 ug/ml incubated for 20 hrs by microbroth dilution method; assay type: functional, organism-based
Acinetobacter baumannii = assay: Antibacterial activity against Acinetobacter baumannii ATCC 19004 up to 100 ug/ml incubated for 20 hrs by microbroth dilution method; assay type: functional, organism-based
Staphylococcus aureus [7] = assay: Antibacterial activity against Staphylococcus aureus ATCC 29213 up to 100 ug/ml incubated for 20 hrs by microbroth dilution method; assay type: functional, organism-based
Salmonella typhimurium = assay: Antibacterial activity against Salmonella typhimurium ATCC 14028 up to 100 ug/ml incubated for 20 hrs by microbroth dilution method; assay type: functional, organism-based; conditions: Salmonella enterica subsp. enterica serovar Typhimurium
Enterobacter cloacae = assay: Antibacterial activity against Enterobacter cloacae ATCC 13047 up to 100 ug/ml incubated for 20 hrs by microbroth dilution method; assay type: functional, organism-based
Klebsiella pneumoniae [8] = assay: Antibacterial activity against Klebsiella pneumoniae harboring NDM1 mutant up to 100 ug/ml incubated for 20 hrs by microbroth dilution method; assay type: functional, organism-based
Staphylococcus aureus [9] = assay: Antibacterial activity against Methicillin-resistant Staphylococcus aureus up to 100 ug/ml incubated for 20 hrs by microbroth dilution method; assay type: functional, organism-based

COc1cc(C(=O)O)c2c3c1C(=O)O[C@@H](C)[C@@H]3CS2
Activity (MCF7): inactive
Activity (MDA-MB-231): inactive
Activity (A549): inactive
Activity (HepG2 [1]): inactive
Activity [2]: Non-Toxic
Activity [3]: Non-Toxic
Activity (HepG2 [4]): Active
Activity [5]: Non-Toxic
Activity (Escherichia coli): inactive
Activity (Klebsiella pneumoniae [6]): inactive
Activity (Acinetobacter baumannii): inactive
Activity (Staphylococcus aureus [7]): inactive
Activity (Salmonella typhimurium): inactive
Activity (Enterobacter cloacae): inactive
Activity (Klebsiella pneumoniae [8]): inactive
Activity (Staphylococcus aureus [9]): inactive
